According to patent US11524960B2, “Heterobicyclic inhibitors of MAT2A and methods of use for treating cancer” (AGIOS PHARMACEUTICALS, INC., priority 2018, dated 2022):

Target: T1, MAT2A homodimer (Homo sapiens, UniProt P31153)
T1 construct: inferred from Ni sepharose purification and imidazole elution; made in house; host or cells: Sf9 insect cells, recombinant baculovirus (Bac to Bac, pFASTBAC1)
Experiment: Biochemical assay: inhibition of MAT2A (phosphate release, PiColorLock Gold)
Settings: MAT2A IC50 score; read-out: Enzyme Inhibition (Example 275)
Procedure: Mat2A protein was expressed by recombinant baculovirus in SF9 infected cells using the Bac to Bac system cloned into the pFASTBAC1 vector (Invitrogen, Carlsbad, Calif.). Recombinant MAT2A was isolated from the cell lysate of 150 g of infected cells using HP Ni sepharose column chromatography. Recombinant MAT2A homodimer was eluted with 250 and 500 mM imidazole, and fractions containing MAT2A were identified by sodium dodecyl sulfate polyacrylamide gel electrophoresis and pooled.
For determination of the inhibitory potency of compounds against the MAT2A homodimer, protein was diluted to […] in assay buffer (50 mM Tris, pH 8.0, 50 mM KCl, 15 mM MgCl2, 0.3 mM EDTA, 0.005% [w/v] bovine serum albumin [BSA]). Test compound was prepared in 100% dimethyl sulfoxide (DMSO) at 50× the desired final concentration. […] of compound dilution was added to 40 μL of enzyme dilution and the mixture was allowed to equilibrate for 60 minutes at 25° C. The enzymatic assay was initiated by the addition of 10 μL of substrate mix (500 μM ATP, pH 7.0, 400 μM L-methionine in 1× assay buffer), and the mixture was incubated for a further 60 minutes at 25° C. The reaction was halted and the liberated phosphate released by the enzyme in stoichiometric amounts by the production of S-adenosyl methionine (SAM) was measured using the PiColorLock Gold kit (Innova Biosciences, UK). Absolute product amounts were determined by comparison to a standard curve of potassium phosphate buffer, pH 8.0.

T1 sequence (P31153 whole entry): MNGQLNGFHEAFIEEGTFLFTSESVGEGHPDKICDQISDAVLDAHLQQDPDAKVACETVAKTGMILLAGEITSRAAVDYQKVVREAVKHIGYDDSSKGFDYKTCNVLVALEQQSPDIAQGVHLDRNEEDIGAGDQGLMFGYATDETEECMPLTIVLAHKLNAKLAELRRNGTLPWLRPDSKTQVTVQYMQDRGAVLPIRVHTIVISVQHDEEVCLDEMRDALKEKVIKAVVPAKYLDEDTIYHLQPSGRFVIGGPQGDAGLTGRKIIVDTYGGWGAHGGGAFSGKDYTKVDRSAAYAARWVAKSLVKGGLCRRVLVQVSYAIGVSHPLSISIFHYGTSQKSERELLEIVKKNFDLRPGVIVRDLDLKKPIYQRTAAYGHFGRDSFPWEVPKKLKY

| SMILES | IC50 [nM] |
| --- | --- |
| O=c1c(-c2ccc(Cl)cc2)c2nc(NCC(F)(F)F)ncc2cn1-c1ccc2nscc2c1 [Example 125, 6-(benzo[c]isothiazol-5-yl)-8-(4-chlorophenyl)-2-((2,2,2-trifluoroethyl)amino)pyrido[4,3-d]pyrimidin-7(6H)-one] | < 100 |
| Cn1cc2cc(-n3cc4cnc(NCC(F)(F)F)nc4c(-c4ccc(Cl)cc4)c3=O)cnc2n1 [Example 126, 8-(4-chlorophenyl)-6-(2-methyl-2H-pyrazolo[3,4-b]pyridin-5-yl)-2-((2,2,2-trifluoroethyl)amino)pyrido[4,3-d]pyrimidin-7(6H)-one] | 1000 to 10000 |
| CC(C)n1cnc2ccc(-n3cc4cnc(NCC(F)(F)F)nc4c(-c4ccc(Cl)cc4)c3=O)cc21 [Example 128, 8-(4-chlorophenyl)-6-(1-isopropyl-1H-benzo[d]imidazol-6-yl)-2-(2,2,2-trifluoroethylamino)pyrido[4,3-d]pyrimidin-7(6H)-one] | < 100 |
| O=c1c(-c2ccc(Cl)cc2)c2nc(NCC(F)(F)F)ncc2cn1-c1ccn2nccc2c1 [Example 130, 8-(4-chlorophenyl)-6-(pyrazolo[1,5-a]pyridin-5-yl)-2-(2,2,2-trifluoroethylamino)pyrido[4,3-d]pyrimidin-7(6H)-one] | < 100 |
| O=c1c(-c2ccc(Cl)cc2)c2nc(NCC(F)(F)F)ncc2cn1-c1ccc2nnccc2c1 [Example 131, 8-(4-chlorophenyl)-6-(cinnolin-6-yl)-2-(2,2,2-trifluoroethylamino)pyrido[4,3-d]pyrimidin-7(6)-one] | < 100 |
| O=c1c(-c2ccc(Cl)cc2)c2nc(NCC(F)(F)F)ncc2cn1-c1ccc2nccn2c1 [Example 134, 8-(4-chlorophenyl)-6-(imidazo[1,2-a]pyridin-6-yl)-2-(2,2,2-trifluoroethylamino)pyrido[4,3-d]pyrimidin-7(6H)-one] | < 100 |
| Cn1cc2cc(-n3cc4ccc(CS(C)(=O)=O)nc4c(-c4ccc(Cl)cc4)c3=O)ccc2n1 [Example 135-A, 8-(4-chlorophenyl)-6-(2-methyl-2H-indazol-5-yl)-2-((methylsulfonyl)methyl)-1,6-naphthyridin-7(6H)-one] | 100 to 1000 |
| O=c1c(-c2ccc(Cl)cc2)c2nc(NCC(F)(F)F)ncc2cn1-c1ccc2nncn2c1 [Example 136, 6-([1,2,4]triazolo[4,3-a]pyridin-6-yl)-8-(4-chlorophenyl)-2-((2,2,2-trifluoroethyl)amino)pyrido[4,3-d]pyrimidin-7(6H)-one] | 100 to 1000 |
| COCc1ccc2cn(-c3ccc4nn(C)cc4c3)c(=O)c(-c3ccc(Cl)cc3)c2n1 [Example 136-A, 8-(4-chlorophenyl)-2-(methoxymethyl)-6-(2-methyl-2H-indazol-5-yl)-1,6-naphthyridin-7(6H)-one] | < 100 |
| Cc1nc2cc(-n3cc4cnc(NCC(F)(F)F)nc4c(-c4ccc(Cl)cc4)c3=O)ccc2o1 [Example 138, 8-(4-chlorophenyl)-6-(2-methylbenzo[d]oxazol-5-yl)-2-((2,2,2-trifluoroethyl)amino)pyrido[4,3-d]pyrimidin-7(6H)-one] | 100 to 1000 |
| Cn1cc(-n2cc3cnc(NCC(F)(F)F)nc3c(-c3ccc(Cl)cc3)c2=O)ccc1=O [Example 140, 8-(4-chlorophenyl)-6-(1-methyl-6-oxo-1,6-dihydropyridin-3-yl)-2-((2,2,2-trifluoroethyl)amino)pyrido[4,3-d]pyrimidin-7(6H)-one] | 100 to 1000 |
| O=c1c(-c2ccc(Cl)cc2)c2nc(NCC(F)(F)F)ncc2cn1-c1ccc2n[nH]cc2c1 [Example 142, 8-(4-chlorophenyl)-6-(2H-indazol-5-yl)-2-((2,2,2-trifluoroethyl)amino)pyrido[4,3-d]pyrimidin-7(6H)-one] | 100 to 1000 |
| COc1ccc(-c2c(=O)n(-c3ccc4ncncc4c3)cc3cnc(NCC(F)(F)F)nc23)cc1 [Example 146, 8-(4-methoxyphenyl)-6-(quinazolin-6-yl)-2-((2,2,2-trifluoroethyl)amino)pyrido[4,3-d]pyrimidin-7(6H)-one] | 100 to 1000 |
| Cc1nc2cc(-n3cc4cnc(NCC(F)(F)F)nc4c(-c4ccc(OC(F)F)cc4)c3=O)ccc2o1 [Example 149, 8-(4-(difluoromethoxy)phenyl)-6-(2-methylbenzo[d]oxazol-5-yl)-2-((2,2,2-trifluoroethyl)amino)pyrido[4,3-d]pyrimidin-7(6H)-one] | < 100 |
| O=c1c(-c2ccc(OC(F)F)cc2)c2nc(NCC(F)(F)F)ncc2cn1-c1ccc2nn(C3CC3)cc2c1 [Example 154, 6-(2-cyclopropyl-2H-indazol-5-yl)-8-(4-(difluoromethoxy)phenyl)-2-((2,2,2-trifluoroethyl)amino)pyrido[4,3-d]pyrimidin-7(6H)-one] | < 100 |
| Cc1ccc2cc(-n3cc4cnc(NCC(F)(F)F)nc4c(-c4ccc(C5CC5)cc4)c3=O)ccc2n1 [Example 162, 8-(4-cyclopropylphenyl)-6-(2-methylquinolin-6-yl)-2-((2,2,2-trifluoroethyl)amino)pyrido[4,3-d]pyrimidin-7(6H)-one] | < 100 |
| O=c1c(-c2ccc(C3CC3)cc2)c2nc(NCC(F)(F)F)ncc2cn1-c1ccc2nc(C(F)(F)F)ccc2c1 [Example 163, 8-(4-cyclopropylphenyl)-2-((2,2,2-trifluoroethyl)amino)-6-(2-(trifluoromethyl)quinolin-6-yl)pyrido[4,3-d]pyrimidin-7(6H)-one] | 1000 to 10000 |
| O=c1c(-c2ccc(C3CC3)cc2)c2nc(NCC(F)(F)F)ncc2cn1-c1ccc2c(c1)CCO2 [Example 164, 8-(4-cyclopropylphenyl)-6-(2,3-dihydrobenzofuran-5-yl)-2-((2,2,2-trifluoroethyl)amino)pyrido[4,3-d]pyrimidin-7(6H)-one] | < 100 |
| O=c1c(-c2ccc(C3CC3)cc2)c2nc(NCC(F)(F)F)ncc2cn1-c1ccc2nccn2c1 [Example 165, 8-(4-cyclopropylphenyl)-6-(imidazo[1,2-a]pyridin-6-yl)-2-((2,2,2-trifluoroethyl)amino)pyrido[4,3-d]pyrimidin-7(6)-one] | < 100 |
| CCNc1ncc2cn(-c3ccc4nn(C)cc4c3)c(=O)c(-c3ccc(OC(F)(F)F)cc3)c2n1 [Example 170, 2-(ethylamino)-6-(2-methyl-2H-indazol-5-yl)-8-(4-(trifluoromethoxy)phenyl)pyrido[4,3-d]pyrimidin-7(6H)-one] | < 100 |
| Cn1cc2cc(-n3cc4cnc(NC5CC5)nc4c(-c4ccc(Cl)cc4)c3=O)ccc2n1 [Example 173, 8-(4-chlorophenyl)-2-(cyclopropylamino)-6-(2-methyl-2H-indazol-5-yl)pyrido[4,3-d]pyrimidin-7(6H)-one] | < 100 |
| Cn1cc2cc(-n3cc4cnc(NC5CCC5)nc4c(-c4ccc(OC(F)F)cc4)c3=O)ccc2n1 [Example 174, 2-(cyclobutylamino)-8-(4-(difluoromethoxy)phenyl)-6-(2-methyl-2H-indazol-5-yl)pyrido[4,3-d]pyrimidin-7(6H)-one] | < 100 |
| Cn1cc2cc(-n3cc4cnc(NCC(F)F)nc4c(-c4ccc(OC(F)F)cc4)c3=O)ccc2n1 [Example 175, 2-((2,2-difluoroethyl)amino)-8-(4-(difluoromethoxy)phenyl)-6-(2-methyl-2H-indazol-5-yl)pyrido[4,3-d]pyrimidin-7(6H)-one] | < 100 |
| COc1ccc(-c2c(=O)n(-c3ccncc3)cc3cnc(NCC(F)(F)F)nc23)cc1 [Example 176, 8-(4-methoxyphenyl)-6-(pyridin-4-yl)-2-((2,2,2-trifluoroethyl)amino)pyrido[4,3-d]pyrimidin-7(6H)-one] | 100 to 1000 |
| CNc1ncc2cn(-c3ccc4ncccc4c3)c(=O)c(-c3ccc(OC(F)F)cc3)c2n1 [Example 184, 8-(4-(difluoromethoxy)phenyl)-2-(methylamino)-6-(quinolin-6-yl)pyrido[4,3-d]pyrimidin-7(6H)-one] | < 100 |
| O=c1c(-c2ccc(OC(F)F)cc2)c2nc(N3CCC3)ncc2cn1-c1ccc2ncccc2c1 [Example 185, 2-(azetidin-1-yl)-8-(4-(difluoromethoxy)phenyl)-6-(quinolin-6-yl)pyrido[4,3-d]pyrimidin-7(6)-one] | 1000 to 10000 |
| COc1ccc(-n2cc3cnc(NCCC(F)(F)F)nc3c(-c3ccc(Br)cc3)c2=O)cc1 [Example 186, 8-(4-bromophenyl)-6-(4-methoxyphenyl)-2-((3,3,3-trifluoropropyl)amino)pyrido[4,3-d]pyrimidin-7(6)-one] | 100 to 1000 |
| COc1ccc(-n2cc3cnc(N(C)CC(F)(F)F)nc3c(-c3ccc(Br)cc3)c2=O)cc1 [Example 187, 8-(4-bromophenyl)-6-(4-methoxyphenyl)-2-(methyl(2,2,2-trifluoroethyl)amino)pyrido[4,3-d]pyrimidin-7(6H)-one] | 1000 to 10000 |
| COc1ccc(-n2cc3cnc(NCC4CC4)nc3c(-c3ccc(Br)cc3)c2=O)cc1 [Example 190, 8-(4-bromophenyl)-2-((cyclopropylmethyl)amino)-6-(4-methoxyphenyl)pyrido[4,3-d]pyrimidin-7(6H)-one] | < 100 |
| CCCNc1ncc2cn(-c3ccc(OC)cc3)c(=O)c(-c3ccc(Br)cc3)c2n1 [Example 191, 8-(4-bromophenyl)-6-(4-methoxyphenyl)-2-(propylamino)pyrido[4,3-d]pyrimidin-7(6H)-one] | < 100 |
